From the NIST ThermoML archive (doi:10.1016/j.jct.2010.11.003)
Several values for one entry are separate records, joined by “and”; a condition that tells them apart may be missing. Equal entries are not always repeated.

Assay: mn = molality of the nth substance listed, in mol/kg
Conditions: 101 kPa, Liquid; for speed of sound: Sing-around technique in a fixed-path interferometer; for mass density: Vibrating tube method; for viscosity: Capillary tube (Ostwald / Ubbelohde) method

O=C([O-])CC(O)(CC(=O)[O-])C(=O)[O-].[K+].[K+].[K+] [potassium citrate] + O
Conditions | mass density, 293.15 K [kg/m3] | speed of sound, 293.15 K [m/s] | speed of sound, 298.15 K [m/s] | viscosity, 298.15 K
m1 = 0.0472 | 1007.81 | 1492.8 | 1506.6 | 1.027 mPa·s and 0.911 mPa·s
m1 = 0.0566 | 1009.7 | 1494.6 | 1508.5 | 0.918 mPa·s and 1.027 mPa·s
m1 = 0.066 | 1011.58 | 1496.5 | 1510.3 | 0.924 mPa·s and 1.029 mPa·s
m1 = 0.0754 | 1013.45 | 1498.3 | 1512 | 0.93 mPa·s and 1.033 mPa·s
m1 = 0.0849 | 1015.34 | 1500.2 | 1513.9 | 0.935 mPa·s and 1.037 mPa·s
m1 = 0.0943 | 1017.2 | 1502.1 | 1515.7 | 0.942 mPa·s and 1.041 mPa·s
m1 = 0.2984 | 1055.65 | 1540.4 | 1552.8 | 1.065 mPa·s and 1.132 mPa·s
m1 = 0.3971 | 1073.05 | 1558.2 | – | 1.13 mPa·s and 1.183 mPa·s
m1 = 0.4955 | 1089.85 | 1576 | – | 1.2 mPa·s and 1.238 mPa·s
m1 = 0.5936 | 1106.03 | 1593.3 | – | 1.274 mPa·s and 1.295 mPa·s
m1 = 0.7877 | 1136.49 | 1626.4 | – | 1.423 mPa·s and 1.441 mPa·s
m1 = 0.9823 | 1165.2 | 1658.6 | – | 1.575 mPa·s and 1.624 mPa·s
m1 = 1.175 | 1191.92 | 1689.6 | – | 1.733 mPa·s and 1.837 mPa·s
m1 = 1.366 | 1216.69 | 1718.7 | – | 1.92 mPa·s and 2.072 mPa·s
m1 = 1.555 | 1239.9 | 1746.2 | – | 2.121 mPa·s and 2.334 mPa·s
m1 = 1.837 | 1272.28 | 1784.9 | – | 2.476 mPa·s and 2.788 mPa·s
